Here are results for 6 molecules from patent US5962291A, “Metal dependent catalytic antibodies and method for producing the same” (The Regents of the University of Colorado, priority 1997, dated 1999).

What all share (assay type): biochemical, mice
In assay [1] the test system is monoclonal antibody 6A1A6 (metal dependent catalytic antibody, IgG). In words: Hydrolysis of 14C-labeled ATP, ADP and AMP by antibody 6A1A6, silica TLC analysis. The following applies: for Km / Vmax: 37° C., 0.5 mM EDTA, 1 mM MgCl2, 40 mM CHES, pH 9.0, 1.9 μM antibody. The protocol: General. […] EDTA was added to reactions to a concentration that removed the catalytic activity. MgCl2 or other metal salts were then added back to the reactions at the optimum level. Antibody concentration was adjusted for each system to obtain useable data in a reasonable reaction time and varied from 0.5-4 μM.
(§1) Kinetic analyses were done by standard methods as described. Rates were defined as initial velocities and reported in min^-1 or sec^-1. Each assay was done in duplicate or triplicate to allow for error analysis. Background rates were measured using an identical reaction mixture without antibody present. Michales-Menten parameters kcat and Km were derived from Eadie-Hofstee or weighted Lineweaver-Burk plots (using the computer program Enzyme Kinetics 1.0, Macintosh, Trinity Software). Inhibitory constants, Ki, were derived from Dixon or Lineweaver-Burk plots.
Thin Layer Chromatography. Reactions were quenched and analyzed by spotting on a TLC plate. Two systems were used. PEI-cellulose coated plates were run in 1.5 M formic acid/0.5 M LiCl (Rf values: […], 0.3; Pi, 0.8). (In some cases it was useful to pre-run the TLC plate in H2 O to reduce smearing). Silica coated plates were run in isopropanol:NH4OH:H2 O, (50:25:25) (Rf values: ATP, 0.36; ADP, 0.55; AMP, 0.7; and Adenosine, 0.95). Assays involving the visualization of pyrophosphate used two TLC systems simultaneously: the silica system described (Rf values: PPi,O; Pi, 0.3), and a PEI-cellulose system run in 0.3 M sodium phosphate, pH=7.0 (Rf values: ATP, 0.2; ADP, 0.4; AMP, 0.6; PPi, 0.15; and Pi, 0.65). Radioactivity was quantitated using a Molecular Dynamics Phosphorlmager.
Kinetic Assays Using ^14 C-Labeled Compounds. Assays were performed with [8-^14 C]ATP, [8-^14 C]ADP, and [^14 C(U)]AMP. […] Immediately before each reaction, the solution was evaporated to dryness in vacuo and the compound resuspended in an equal volume of water. […] Reactions were quenched and analyzed by the silica TLC system.

Assay [2] has the same test system. Nature of the assay: Spectrophotometric (405 nm) hydrolysis of p-nitrophenyl ester substrates by antibody 6A1A6. The following applies: for Ki: pH 9.0, 10 mM MgCl2. The protocol:
General. Because antibody 6A1A6, see Table 2, was metal dependent, a few precautions were taken to insure consistent results for all assays. […] EDTA was added to reactions to a concentration that removed the catalytic activity. MgCl2 or other metal salts were then added back to the reactions at the optimum level. Antibody concentration was adjusted for each system to obtain useable data in a reasonable reaction time and varied from 0.5-4 μM.
as §1
p-Nitrophenyl Esters as Substrates. A useful system to assess cleavage utilized substrates containing esters with p-nitrophenol leaving groups. This assay was fast, reproducible and much more trouble free than the fluorescence assays. It relied on the fact that the anion cleavage product, p-nitrophenolate, is yellow at basic pH and its appearance can be followed spectrophotometrically at 405 nm.
Antibody 6A1A6 was assayed spectrophotometrically for its ability to cleave the above mentioned substrates containing the p-nitrophenyl leaving group at 405 nm using a Molecular Devices Vmax® kinetic microplate reader. Kinetic assays were performed in triplicate at 25° C. in 40 mM TAPS, 150 mM NaCl, 10 mM MgCl2, 0.5-0.6 μM antibody, pH=9.0.
Phosphodiester Substrate. […] This represents the first report of a catalytic antibody capable of hydrolyzing a phosphodiester bond. pNPPT is normally used as a substrate for snake venom phosphodiesterase. […] The uncatalyzed rate under these conditions was 1.35×10^-6 min^-1. […] The Ki is defined as the negative x-coordinate of the intersection point of the lines in a Dixon plot.
Phosphomonoester Substrate. Under reaction condition identical to those used for pNPPT, the antibody also catalyzes the hydrolysis of p-nitrophenyl phosphate (pNPP). […] The uncatalyzed rate was 3.4×10^-6 min^-1.

Assay [3] concerns the target monoclonal antibody 6A1A6 (metal dependent catalytic antibody, IgG). Nature of the assay: Hydrolysis of oligomer T15 (DNase activity) by antibody 6A1A6, inhibition by hapten. As to conditions: substrate oligomer T15; pH 9, 1 mM Mg2+; read-out: Ki (competitive inhibition of DNase activity). The procedure: as §1
It was unknown what type of specificity antibody 6A1A6 would have for a DNA polymer. Several possible activities were monitored under conditions of pH 9 and 1 mM Mg^2+ that were optimal for ATP hydrolysis.
Kinetic Parameters. Kinetic experiments were performed with T15 as a substrate. Due to the very slow rate of hydrolysis, experiments were done under single turnover conditions with enzyme excess.
Control Experiments. Standard controls were performed using oligomer T15 as a substrate. Immunoprecipitation reduced activity by 93%. The remaining activity could be due to incomplete immunoprecipitation, but could also be due to a contaminating nuclease. […] Fab fragments retained 46±17% of the original activity.

Setting [4] is: substrate pNPP, read-out: Ki (competitive inhibition of pNPP hydrolysis).

By Km is commonly meant the concentration of substrate that gives half-maximal velocity. Regarding `Nc1ncnc2c1ncn2[C@@H]1O[C@H](COP(=O)(O)OP(=O)(O)OP(=O)(O)O)[C@@H](O)[C@H]1O` [ATP, Adenosine triphosphate], the Km in assay [1] is 1400 ± 123 µM.
Take `Nc1ncnc2c1ncn2[C@@H]1O[C@H](COP(=O)(O)OP(=O)(O)O)[C@@H](O)[C@H]1O` [ADP, adenosine diphosphate]: in assay [1], the Km worked out at 70 ± 8 µM and the Vmax was 120 ± 20 s⁻¹.
Turning to `Cc1cn([C@H]2C[C@H](O)[C@@H](COP(=O)(O)Oc3ccc([N+](=O)[O-])cc3)O2)c(=O)[nH]c1=O` [pNPPT, thymidine-5'-monophosphate-p-nitrophenyl ester], in assay [2] (10 mM MgCl2, 40 mM TAPS, 150 mM NaCl, pH 9.0, 25° C.), the “kcat (apparent), pNPPT as substrate” value is 0.031±0.05 min^-1. Moreover, the Km in assay [2] (10 mM MgCl2, 40 mM TAPS, 150 mM NaCl, pH 9.0, 25° C., read-out: Km (apparent), pNPPT as substrate) worked out at 290 ± 80 µM.
For the molecule `Nc1ncnc2c1ncn2[C@@H]1O[C@H](COP(=O)(O)O)[C@@H](O)[C@H]1O` [AMP], in assay [1], the Km was found to be 161 ± 21 µM and the Vmax is 102 ± 3 s⁻¹.
Broadly, the Ki is the dissociation constant of the complex between target and ligand, obtained from inhibition or displacement. With `O=[N+]([O-])c1ccc(O)cc1` [p-nitrophenol], the inhibition constant Ki in assay [2] (setting [4]) is 9.31 ± 1.94 µM; in assay [2] (substrate pNPPT, product inhibition, read-out: Ki for p-nitrophenol (Dixon plot)), 10.1 ± 2.1 µM.
Take “thymidine 3'-O-(7-hydroxy-4-methyl coumarin) phosphorodithioate [hapten]”: the Ki in assay [2] (setting [4]) was 199 ± 54 µM; in assay [3], 758 ± 57 µM; in assay [1] (substrate ATP, read-out: Ki (competitive inhibitor of ATP hydrolysis)), 559 µM.
